#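 96-well plates; 48 h exposure; 5 concentrations. Endpoints by linear interpolation between flanking doses. Not reached: highest tested concentration assigned. Abbreviation: GI50, concentration required for 50% inhibition of growth. TGI is the concentration that stops growth completely.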
# Experiments:
# Test in all cases: NCI-60 cell line screen, 48 h
# TK-10 renal = system: TK-10 renal
# OVCAR-8 ovarian = system: OVCAR-8 ovarian
# SK-OV-3 ovarian = system: SK-OV-3 ovarian
# SK-MEL-2 melanoma = system: SK-MEL-2 melanoma
# T-47D breast = system: T-47D breast
# CCRF-CEM leukemia = system: CCRF-CEM leukemia
# UACC-62 melanoma = system: UACC-62 melanoma
# CAKI-1 renal = system: CAKI-1 renal
# KM12 colon = system: KM12 colon
# SF-295 CNS = system: SF-295 CNS
# SR leukemia = system: SR leukemia
# RPMI-8226 leukemia = system: RPMI-8226 leukemia
# SNB-75 CNS = system: SNB-75 CNS
# UACC-257 melanoma = system: UACC-257 melanoma
# OVCAR-4 ovarian = system: OVCAR-4 ovarian
# K-562 leukemia = system: K-562 leukemia
# ACHN renal = system: ACHN renal
# IGROV1 ovarian = system: IGROV1 ovarian
# M14 melanoma = system: M14 melanoma
# HS 578T breast = system: HS 578T breast
# SF-268 CNS = system: SF-268 CNS
# HT29 colon = system: HT29 colon
# NCI-H522 lung = system: NCI-H522 lung
# LOX IMVI melanoma = system: LOX IMVI melanoma
# HCT-116 colon = system: HCT-116 colon
# NCI/ADR-RES ovarian = system: NCI/ADR-RES ovarian
# 786-0 renal = system: 786-0 renal
# SN12C renal = system: SN12C renal
# MDA-MB-435 = system: MDA-MB-435
# MDA-MB-231 breast = system: MDA-MB-231 breast
# UO-31 renal = system: UO-31 renal
# SNB-19 CNS = system: SNB-19 CNS
# COLO 205 colon = system: COLO 205 colon
# SF-539 CNS = system: SF-539 CNS
# OVCAR-3 ovarian = system: OVCAR-3 ovarian
# HCT-15 colon = system: HCT-15 colon
# A498 renal = system: A498 renal
# PC-3 prostate = system: PC-3 prostate
# RXF 393 renal = system: RXF 393 renal
# MCF7 breast = system: MCF7 breast
# A549 NSCLC = system: A549 NSCLC
# HOP-62 NSCLC = system: HOP-62 NSCLC
# U251 CNS = system: U251 CNS
# SK-MEL-28 melanoma = system: SK-MEL-28 melanoma
# NCI-H226 lung = system: NCI-H226 lung
# DU-145 prostate = system: DU-145 prostate
# SK-MEL-5 melanoma = system: SK-MEL-5 melanoma
# SW-620 colon = system: SW-620 colon
# MALME-3M melanoma = system: MALME-3M melanoma
# HOP-92 NSCLC = system: HOP-92 NSCLC
# OVCAR-5 ovarian = system: OVCAR-5 ovarian
# NCI-H460 lung = system: NCI-H460 lung
# EKVX NSCLC = system: EKVX NSCLC
# BT-549 breast = system: BT-549 breast
# HCC-2998 colon = system: HCC-2998 colon
# NCI-H23 lung = system: NCI-H23 lung
# HL-60(TB) leukemia = system: HL-60(TB) leukemia
# MOLT-4 leukemia = system: MOLT-4 leukemia
smiles,measurement,setting,value
CCN(CC)c1ccc(/C=N/NC(=O)c2ccc(S(N)(=O)=O)cc2)c(O)c1,GI50,TK-10 renal,373 nM
same,TGI,TK-10 renal,40.1 µM
same,GI50,OVCAR-8 ovarian,279 nM
same,TGI,OVCAR-8 ovarian,> 49.6 µM
same,GI50,SK-OV-3 ovarian,394 nM
same,TGI,SK-OV-3 ovarian,18.4 µM
same,GI50,SK-MEL-2 melanoma,2250 nM
same,TGI,SK-MEL-2 melanoma,53.1 µM
same,GI50,T-47D breast,2030 nM
same,TGI,T-47D breast,> 100 µM
same,GI50,CCRF-CEM leukemia,105 nM
same,TGI,CCRF-CEM leukemia,> 100 µM
same,GI50,UACC-62 melanoma,346 nM
same,TGI,UACC-62 melanoma,5.14 µM
same,GI50,CAKI-1 renal,393 nM
same,TGI,CAKI-1 renal,30.9 µM
same,GI50,KM12 colon,579 nM
same,TGI,KM12 colon,> 100 µM
same,GI50,SF-295 CNS,528 nM
same,TGI,SF-295 CNS,20.5 µM
same,GI50,SR leukemia,63.1 nM
same,GI50,RPMI-8226 leukemia,3.64 µM
same,TGI,RPMI-8226 leukemia,> 100 µM
same,GI50,SNB-75 CNS,351 nM
same,GI50,UACC-257 melanoma,404 nM
same,TGI,UACC-257 melanoma,5.33 µM
same,GI50,OVCAR-4 ovarian,304 nM
same,TGI,OVCAR-4 ovarian,> 85.4 µM
same,GI50,K-562 leukemia,408 nM
same,TGI,K-562 leukemia,> 100 µM
same,GI50,ACHN renal,465 nM
same,TGI,ACHN renal,> 100 µM
same,GI50,IGROV1 ovarian,437 nM
same,TGI,IGROV1 ovarian,> 100 µM
same,GI50,M14 melanoma,351 nM
same,TGI,M14 melanoma,7.14 µM
same,GI50,HS 578T breast,2250 nM
same,TGI,HS 578T breast,> 68 µM
same,GI50,SF-268 CNS,220 nM
same,TGI,SF-268 CNS,17.2 µM
same,GI50,HT29 colon,485 nM
same,TGI,HT29 colon,> 54.9 µM
same,GI50,NCI-H522 lung,310 nM
same,TGI,NCI-H522 lung,> 45.3 µM
same,GI50,LOX IMVI melanoma,187 nM
same,TGI,LOX IMVI melanoma,3.61 µM
same,GI50,HCT-116 colon,205 nM
same,TGI,HCT-116 colon,56.7 µM
same,GI50,NCI/ADR-RES ovarian,1390 nM
same,TGI,NCI/ADR-RES ovarian,> 100 µM
same,GI50,786-0 renal,370 nM
same,TGI,786-0 renal,8.87 µM
same,GI50,SN12C renal,638 nM
same,TGI,SN12C renal,> 64.8 µM
same,GI50,MDA-MB-435,659 nM
same,TGI,MDA-MB-435,> 100 µM
same,GI50,MDA-MB-231 breast,389 nM
same,TGI,MDA-MB-231 breast,28.6 µM
same,GI50,UO-31 renal,399 nM
same,TGI,UO-31 renal,> 100 µM
same,GI50,SNB-19 CNS,669 nM
same,TGI,SNB-19 CNS,29.9 µM
same,GI50,COLO 205 colon,296 nM
same,TGI,COLO 205 colon,27 µM
same,GI50,SF-539 CNS,390 nM
same,TGI,SF-539 CNS,7.87 µM
same,GI50,OVCAR-3 ovarian,137 nM
same,TGI,OVCAR-3 ovarian,> 100 µM
same,GI50,HCT-15 colon,318 nM
same,TGI,HCT-15 colon,> 100 µM
same,GI50,A498 renal,982 nM
same,TGI,A498 renal,32.7 µM
same,GI50,PC-3 prostate,345 nM
same,TGI,PC-3 prostate,> 100 µM
same,GI50,RXF 393 renal,541 nM
same,TGI,RXF 393 renal,8.71 µM
same,GI50,MCF7 breast,399 nM
same,TGI,MCF7 breast,> 100 µM
same,GI50,A549 NSCLC,1440 nM
same,TGI,A549 NSCLC,> 100 µM
same,GI50,HOP-62 NSCLC,226 nM
same,TGI,HOP-62 NSCLC,7.18 µM
same,GI50,U251 CNS,159 nM
same,TGI,U251 CNS,16.5 µM
same,GI50,SK-MEL-28 melanoma,352 nM
same,TGI,SK-MEL-28 melanoma,> 64.5 µM
same,GI50,NCI-H226 lung,821 nM
same,TGI,NCI-H226 lung,> 29.6 µM
same,GI50,DU-145 prostate,540 nM
same,TGI,DU-145 prostate,> 79.6 µM
same,GI50,SK-MEL-5 melanoma,537 nM
same,TGI,SK-MEL-5 melanoma,> 20.3 µM
same,GI50,SW-620 colon,429 nM
same,TGI,SW-620 colon,> 100 µM
same,GI50,MALME-3M melanoma,482 nM
same,TGI,MALME-3M melanoma,9.43 µM
same,GI50,HOP-92 NSCLC,216 nM
same,TGI,HOP-92 NSCLC,13.1 µM
same,GI50,OVCAR-5 ovarian,1640 nM
same,TGI,OVCAR-5 ovarian,> 84.5 µM
same,GI50,NCI-H460 lung,467 nM
same,TGI,NCI-H460 lung,6.73 µM
same,GI50,EKVX NSCLC,397 nM
same,TGI,EKVX NSCLC,> 100 µM
same,GI50,BT-549 breast,480 nM
same,TGI,BT-549 breast,7.73 µM
same,GI50,HCC-2998 colon,419 nM
same,TGI,HCC-2998 colon,> 80.1 µM
same,GI50,NCI-H23 lung,1110 nM
same,TGI,NCI-H23 lung,> 100 µM
same,GI50,HL-60(TB) leukemia,206 nM
same,GI50,MOLT-4 leukemia,322 nM
same,TGI,MOLT-4 leukemia,> 100 µM
